These results are taken from patent US11702422B2, “Imidazopyridazines as modulators of IL-17” (Janssen Pharmaceutica NV, priority 2020, dated 2023).

pIC50: −log10 of the molar value.

The target in test [1] is IL-17A(FLAG-Tagged): IL-17RA(His-Tagged) (Homo sapiens, UniProt Q16552, K93Q). Nature of the test: IL-17A(FLAG-Tagged): IL-17RA(His-Tagged) Binding Disruption Eu-HTRF Assay. To be noted: IL-17A/IL-17RA binding disruption, simple average if tested more than once. An outline of the steps: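 IC50 comes from a one-site competition fit of the HTRF 665/620 nm ratio. Compound dilutions (2-fold, 22 points) were held 1 h rt with FLAG-tagged IL-17A dimer, then His-tagged IL-17RA plus Eu-cryptate anti-FLAG and D2 anti-His antibodies were added for 2 h rt.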

Test [2] has as its system IL-17A-induced G-CSF production in human normal keratinocyte (NHK). Nature of the test: NHK Assay: IL-17A-induced G-CSF production in human normal keratinocytes. Format: cell-based. To be noted: 24 h, adult normal human keratinocytes, IL-17A 5 ng/mL, simple average if tested more than once. In outline: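 Titrated compound plus recombinant human IL-17A (pre-incubated 1 h, rt) were applied to adult human keratinocytes at 5 ng/mL cytokine, 0.2% DMSO. Cultures ran 24 h at 37° C, and supernatant G-CSF was measured by HTRF to derive IC50.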

Broadly, the pIC50 is −log10 of the IC50, conventionally taken in molar units.

Sequence of UniProt Q16552 (Q16552 with tags, fused parts or gaps K93Q): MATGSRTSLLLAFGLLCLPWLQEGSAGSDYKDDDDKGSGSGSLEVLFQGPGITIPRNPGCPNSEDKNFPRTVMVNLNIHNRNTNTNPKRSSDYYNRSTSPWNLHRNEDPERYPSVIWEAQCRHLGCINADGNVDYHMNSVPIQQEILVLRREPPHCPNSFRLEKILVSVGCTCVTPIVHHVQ

Consider `O=C(CC1CC(F)(F)C1)NC(c1cnn2cc([C@@H](NC(=O)c3ccn(CCC(F)(F)F)n3)C3CCC(F)(F)CC3)nc2c1)C1CC1` (single isomer, unassigned) [Example 20, N—((S)-(7-((R*)-Cyclopropyl(2-(3,3-difluorocyclobutyl)acetamido)methyl)imidazo[1,2-b]pyridazin-2-yl)(4,4-difluorocyclohexyl)methyl)-1-(3,3,3-trifluoropropyl)-1H-pyrazole-3-carboxamide], for which the pIC50 in test [1] was 6.80; in test [2] (Homo sapiens, Keratinocyte), 6.19.
In the same order, the values of `O=C(CCC(F)(F)F)NC(c1cnn2cc([C@@H](NC(=O)c3ccn(CCC(F)(F)F)n3)C3CCC(F)(F)CC3)nc2c1)C1CC1` (single isomer, unassigned) [Example 21, N—((S)-(7-((R*)-Cyclopropyl(4,4,4-trifluorobutanamido)methyl)imidazo[1,2-b]pyridazin-2-yl)(4,4-difluorocyclohexyl)methyl)-1-(3,3,3-trifluoropropyl)-1H-pyrazole-3-carboxamide] are 6.64 and 6.14.
For `O=C(CC1CC(F)(F)C1)NC(c1cnn2cc([C@@H](NC(=O)c3cnn(CCC(F)(F)F)n3)C3CCC(F)(F)CC3)nc2c1)C1CC1` (single isomer, unassigned) [Example 22, N—((S)-(7-((R*)-Cyclopropyl(2-(3,3-difluorocyclobutyl)acetamido)methyl)imidazo[1,2-b]pyridazin-2-yl)(4,4-difluorocyclohexyl)methyl)-2-(3,3,3-trifluoropropyl)-2H-1,2,3-triazole-4-carboxamide], the pIC50 in test [1] was 6.85; in test [2] (Homo sapiens, Keratinocyte), 6.49.
For the compound `Cn1nccc1C(=O)N[C@H](c1cn2ncc(C(NC(=O)CCC(F)(F)F)C3CC3)cc2n1)C1CCC(F)(F)CC1` (single isomer, unassigned) [Example 23, N—((S)-(7-((R*)-Cyclopropyl(4,4,4-trifluorobutanamido)methyl)imidazo[1,2-b]pyridazin-2-yl)(4,4-difluorocyclohexyl)methyl)-1-methyl-1H-pyrazole-5-carboxamide], the negative logarithm of the IC50 (pIC50) in test [1] is 7.27; in test [2] (Homo sapiens, Keratinocyte) it was 7.09.
In the same order, the values of `Cn1nccc1C(=O)N[C@H](c1cn2ncc(C(NC(=O)CC3CC(F)(F)C3)C3CC3)cc2n1)C1CCC(F)(F)CC1` (single isomer, unassigned) [Example 24, N—((S)-(7-((R*)-Cyclopropyl(2-(3,3-difluorocyclobutyl)acetamido)methyl)imidazo[1,2-b]pyridazin-2-yl)(4,4-difluorocyclohexyl)methyl)-1-methyl-1H-pyrazole-5-carboxamide] are 7.20 and 7.08.
On to `O=C(CC1CC(F)(F)C1)NC(c1cnn2cc([C@@H](NC(=O)c3cnn(CC4CC4)n3)C3CCC(F)(F)CC3)nc2c1)C1CC1` (single isomer, unassigned) [Example 26, N—((S)-(7-((R*)-Cyclopropyl(2-(3,3-difluorocyclobutyl)acetamido)methyl)imidazo[1,2-b]pyridazin-2-yl)(4,4-difluorocyclohexyl)methyl)-2-(cyclopropylmethyl)-2H-1,2,3-triazole-4-carboxamide], for which the pIC50 in test [1] was 7.17; in test [2] (Homo sapiens, Keratinocyte), 6.64.
Turning to `O=C(CCC(F)(F)F)NC(c1cnn2cc([C@@H](NC(=O)c3cnn(CC(F)(F)F)n3)C3CCC(F)(F)CC3)nc2c1)C1CC1` (single isomer, unassigned) [Example 27, N—((S)-(7-((R*)-Cyclopropyl(4,4,4-trifluorobutanamido)methyl)imidazo[1,2-b]pyridazin-2-yl)(4,4-difluorocyclohexyl)methyl)-2-(2,2,2-trifluoroethyl)-2H-1,2,3-triazole-4-carboxamide], the pIC50 in test [1] is 7.00; in test [2] (Homo sapiens, Keratinocyte) it was 6.19.
On the same counts, the results for `CC(C)(C)[C@@H](O)C(=O)NC(c1cnn2cc([C@@H](NC(=O)c3cnn(CC4CC4)n3)C3CCC(F)(F)CC3)nc2c1)C1CC1` (single isomer, unassigned) [Example 29, N—((S)-(7-((R*)-Cyclopropyl((R)-2-hydroxy-3,3-dimethylbutanamido)methyl)imidazo[1,2-b]pyridazin-2-yl)(4,4-difluorocyclohexyl)methyl)-2-(cyclopropylmethyl)-2H-1,2,3-triazole-4-carboxamide] are 7.34 and 6.43.
For `Cc1c(C(=O)N[C@H](c2cn3ncc(C(NC(=O)CC4CC(F)(F)C4)C4CC4)cc3n2)C2CCC(F)(F)CC2)cnn1CCC(F)(F)F` (single isomer, unassigned) [Example 51, N—((S)-(7-((S*)-Cyclopropyl(2-(3,3-difluorocyclobutyl)acetamido)methyl)imidazo[1,2-b]pyridazin-2-yl)(4,4-difluorocyclohexyl)methyl)-5-methyl-1-(3,3,3-trifluoropropyl)-1H-pyrazole-4-carboxamide], the negative logarithm of the IC50 (pIC50) in test [1] was 4.92; in test [2], roughly 4.74.
For the compound `Cc1c(C(=O)N[C@H](c2cn3ncc(C(NC(=O)CC4CC(F)(F)C4)C4CC4)cc3n2)C2CCC(F)(F)CC2)cnn1CCC(F)(F)F` (single isomer, unassigned) [Example 52, N—((S)-(7-((R*)-Cyclopropyl(2-(3,3-difluorocyclobutyl)acetamido)methyl)imidazo[1,2-b]pyridazin-2-yl)(4,4-difluorocyclohexyl)methyl)-5-methyl-1-(3,3,3-trifluoropropyl)-1H-pyrazole-4-carboxamide], the pIC50 is 6.55 in test [1] and 6.17 in test [2].
In the same order, the values of `Cc1c(C(=O)N[C@H](c2cn3ncc(C(NC(=O)CCC(F)(F)F)C4CC4)cc3n2)C2CCC(F)(F)CC2)cnn1CCC(F)(F)F` (single isomer, unassigned) [Example 53, N—((S)-(7-((S*)-Cyclopropyl(4,4,4-trifluorobutanamido)methyl)imidazo[1,2-b]pyridazin-2-yl)(4,4-difluorocyclohexyl)methyl)-5-methyl-1-(3,3,3-trifluoropropyl)-1H-pyrazole-4-carboxamide] are 4.96 and less than 4.70.
In the same order, the values of `Cc1c(C(=O)N[C@H](c2cn3ncc(C(NC(=O)CCC(F)(F)F)C4CC4)cc3n2)C2CCC(F)(F)CC2)cnn1CCC(F)(F)F` (single isomer, unassigned) [Example 54, N—((S)-(7-((R*)-Cyclopropyl(4,4,4-trifluorobutanamido)methyl)imidazo[1,2-b]pyridazin-2-yl)(4,4-difluorocyclohexyl)methyl)-5-methyl-1-(3,3,3-trifluoropropyl)-1H-pyrazole-4-carboxamide] are 6.49 and 6.15.
As to `O=C(CCC(F)(F)F)NC(c1cnn2cc([C@@H](NC(=O)c3cnnn3CCC(F)(F)F)C3CCC(F)(F)CC3)nc2c1)C1CC1` (single isomer, unassigned) [Example 71, N—((S)-(7-((R*)-Cyclopropyl(4,4,4-trifluorobutanamido)methyl)imidazo[1,2-b]pyridazin-2-yl)(4,4-difluorocyclohexyl)methyl)-1-(3,3,3-trifluoropropyl)-1H-1,2,3-triazole-5-carboxamide], the pIC50 in test [1] is 7.00; in test [2] (Homo sapiens, Keratinocyte), 6.74.
`O=C(CC1CC(F)(F)C1)NC(c1cnn2cc([C@@H](NC(=O)c3cnnn3CCC(F)(F)F)C3CCC(F)(F)CC3)nc2c1)C1CC1` (single isomer, unassigned) [Example 72, N—((S)-(7-((S*)-Cyclopropyl(2-(3,3-difluorocyclobutyl)acetamido)methyl)imidazo[1,2-b]pyridazin-2-yl)(4,4-difluorocyclohexyl)methyl)-1-(3,3,3-trifluoropropyl)-1H-1,2,3-triazole-5-carboxamide]: the negative logarithm of the IC50 (pIC50) in test [1] is 7.11; in test [2], 7.07.
In the same order, the values of `O=C(CC1CC(F)(F)C1)NC(c1cnn2cc([C@@H](NC(=O)c3cnnn3CCC(F)(F)F)C3CCC(F)(F)CC3)nc2c1)C1CC1` (single isomer, unassigned) [Example 73, N—((S)-(7-((R*)-Cyclopropyl(2-(3,3-difluorocyclobutyl)acetamido)methyl)imidazo[1,2-b]pyridazin-2-yl)(4,4-difluorocyclohexyl)methyl)-1-(3,3,3-trifluoropropyl)-1H-1,2,3-triazole-5-carboxamide] are 5.72 and roughly 4.82.
Consider `CC(n1nccc1C(=O)N[C@H](c1cn2ncc([C@H](NC(=O)CCC(F)(F)F)C3CC3)cc2n1)C1CCC(F)(F)CC1)C(F)(F)F` (single isomer, unassigned) [Example 115, N—((S)-(7-((R)-Cyclopropyl(4,4,4-trifluorobutanamido)methyl)imidazo[1,2-b]pyridazin-2-yl)(4,4-difluorocyclohexyl)methyl)-1-((R*)-1,1,1-trifluoropropan-2-yl)-1H-pyrazole-5-carboxamide], for which the pIC50 is 6.72 in test [1] and 6.85 in test [2] (Homo sapiens, Keratinocyte).
Turning to `CC(n1nccc1C(=O)N[C@H](c1cn2ncc([C@H](NC(=O)CCC(F)(F)F)C3CC3)cc2n1)C1CCC(F)(F)CC1)C(F)(F)F` (single isomer, unassigned) [Example 116, N—((S)-(7-((R)-Cyclopropyl(4,4,4-trifluorobutanamido)methyl)imidazo[1,2-b]pyridazin-2-yl)(4,4-difluorocyclohexyl)methyl)-1-((S*)-1,1,1-trifluoropropan-2-yl)-1H-pyrazole-5-carboxamide], the figures for the pIC50 in test [1] and in test [2] were 7.00 and 6.68, respectively.
